Measured values published in patent US9186318B2, “Quinolyl-containing hydroxamic acid compound and preparation method thereof, and pharmaceutical composition containing this compound and use thereof” (Beijing Konruns Pharmaceutical Co., Ltd, priority 2011, dated 2015).

Assays:
[1] = test system: GTL-16 gastric cancer cells; test: Anti-tumor experiment in xenograft nude mice; type: in vivo, BALB/c-nu/nu mice; details: GTL-16 xenograft nude mice, 75 mg/kg oral gavage once a day; for Tumor Growth Inhibition (TGI): 14 days; for average tumor volume: after 14 days, mean±SD, n=6
Description: In this example, N1′-[3-fluoro-4-[[7-[[1-[2-(hydroxyamino)-2-oxoethyl]-4-piperidyl]methoxy]-6-methoxy-4-quinolyl]oxy]phenyl]-N1-(4-fluorophenyl)cyclopropane-1,1-dicarboxamide prepared in Example 1 was used to conduct anti-tumor experiment in xenograft nude mice animal models of human gastric cancer. The method and results of the experiment were as follows.
4 to 5-week-old SPF level female BALB/c-nu/nu mice with body weight of 12 g to 16 g were purchased from Beijing Vital River Laboratory Animal Technology Co., Ltd., with the production license number: SCXK (Beijing) 2006. GTL-16 gastric cancer cells were purchased from Shanghai Institutes for Biological Sciences Cell Resource Center. RPM 1-1640 cell culture media, fetal bovine serum (FBS) and trypsin digestion solution were purchased from Gibco. Various antibiotics were purchased from Sigma.
(§1) GTL-16 gastric cancer cells were firstly cultured: GTL-16 cell lines were inoculated in RPM 1-1640 culture medium contain 10% FBS, 100 U/ml penicillin, 100 U/ml streptomycin and cultured under the condition of 37° C., 5% CO2 and 100% humidity in a carbon dioxide incubator. The logarithmic growth phase reached upon 24 h, and the cells completely covered the bottom of the culture flask at approximately 48 h after inoculation. Those with 80% of GTL-16 cells covering the bottom of the culture flask were digested and centrifuged at 1000 r/min for 5 min. The cells were diluted to 2×10^7/ml, and implanted subcutaneously in the right anterior axillary of the nude mice at 0.1 mL per mouse. Starting from 12 days after inoculation of tumor cells, the weight of the tumor-bearing nude mice and the size of tumors were measured, and the mice with tumor sizes ranging from 150-200 mm^3 were randomly divided into vehicle control group (Vehicle was 0.25% methanesulfonic acid) and treatment group in which the mice were treated with N1′-[3-fluoro-4-[[7-[[1-[2-(hydroxyamino)-2-oxoethyl]-4-piperidyl]methoxy]-6-methoxy-4-quinolyl]oxy]phenyl]-N1-(4-fluorophenyl)cyclopropane-1,1-dicarboxamide prepared in Example 1 with 6 mice each group. Thereafter, the nude mice were weighed daily and the oral administrations were performed at 0.1 mL/10 g body-weight through oral gavage method (75 mg/kg, once a day). The tumor size of each animal was measured every 2 days. 14 days later, the tumor-bearing mice were sacrificed by cervical dislocation and the tumors were removed and weighed. The calculation method of Tumor Growth Inhibition (TGI) was as follows: the experimental data were represented by mean±SD; TGI=[(Vvehicle group−Vtreatment group)÷Vvehicle group]×100%, wherein Vvehicle group represented the mice tumor volume of the vehicle group and Vtreatment group represented the mice tumor volume of the treatment group. […]

[2] = Body weight of mice in the anti-tumor experiment; type: in vivo, BALB/c-nu/nu mice; details: treatment group, 75 mg/kg oral once a day; after 14 days treatment
Experimental: as §1, with “Thereafter, the nude mice were weighed daily and the oral administrations were performed at 0.1 mL/10 g body-weight through oral gavage method (75 mg/kg, once a day).” left out, “days.” for “days. 14 days later, the tumor-bearing mice were sacrificed by cervical dislocation and the tumors were removed and weighed. The calculation method of Tumor Growth Inhibition (TGI) was as follows: the experimental data were represented by mean±SD; TGI=[(Vvehicle group−Vtreatment group)÷Vvehicle group]×100%, wherein Vvehicle group represented the mice tumor volume of the vehicle group and Vtreatment group represented the mice tumor volume of the treatment group.”

For `COc1cc2c(Oc3ccc(NC(=O)C4(C(=O)Nc5ccc(F)cc5)CC4)cc3F)ccnc2cc1OCC1CCN(CC(=O)NO)CC1` [Example 1, N1′-[3-fluoro-4-[[7-[[1-[2-(hydroxyamino)-2-oxoethyl]-4-piperidyl]methoxy]-6-methoxy-4-quinolyl]oxy]phenyl]-N1-(4-fluorophenyl)cyclopropane-1,1-dicarboxamide], the “Tumor Growth Inhibition (TGI)” value [1] was 65%, the average tumor volume [1] was 630.9±354.6 mm^3 and the “weight variation of mice” value [2] was less than 10%.

In the case of `COc1cc2c(Oc3ccc(NC(=O)C4(C(=O)Nc5ccc(F)cc5)CC4)cc3F)ccnc2cc1OCCCC(=O)NO` [Example 9, N1′-[3-fluoro-4-[[7-[4-(hydroxyamino)-4-oxobutoxy]-6-methoxy-4-quinolyl]oxy]phenyl]-N1-(4-fluorophenyl)cyclopropane-1,1-dicarboxamide], the “Tumor Growth Inhibition (TGI)” value [1] is reported as 87% and the average tumor volume [1] is reported as 241.1±131.4 mm^3.
